From patent US20200061215A1, “MALTOTRIOSE-BASED PROBES FOR FLUORESCENCE AND PHOTOACOUSTIC IMAGING OF BACTERIA” (The Board of Trustees of the Leland Stanford Junior …, priority 2018, published 2020)

Tests used:
S. aureus-infected wound = test: Fluorescence and bioluminescence imaging in S. aureus wound-infection murine model; type: in vivo, mice; settings: treated group, vancomycin for 7 days
Experimental: Female CD1 or SKH1 elite mice, 6-8 weeks old were anesthetized by isoflurane inhalation (2-3%). A small wound on the upper or lower back of the mice was formed using a sharp pair of scissors. 10^8 CFU, 10^6 CFU, or 10^4 CFU Staphylococcus aureus in 20 μL saline was inoculated into a small pocket subcutaneously before sealing the wound with Vetbond adhesive (1469SB; 3M).
After subcutaneous inoculation of 10^8 CFU (n=5), 10^6 CFU (n=3) and 10^4 CFU (n=3) of S. aureus in the wound, Cy7-1-maltotriose (5 nmol in 2% DMSO/saline, 100 μL injection) was injected via the tail vein. To insure no other infections occur, a daily dose of kanamycin (800 mg/kg) was given to the mice intramuscularly. Fluorescence and bioluminescence images were then captured at 5 and 20 hr post injection of the probe. Image analysis was conducted using Living Image® software.
Fluorescence and Bioluminescence Imaging: After subcutaneous inoculation of 10^6 CFU (n=9) of kanamycin-resistant S. aureus in the wound, mice were administered kanamycin (800 mg/kg) intramuscularly once daily to insure no other bacterial infections occur. Two days after surgery, Cy7-1-maltotriose (10 nmol in 2% DMSO/saline, 200 μL injection) was injected via the tail vein and bioluminescence and fluorescence imaging were performed at 19, 45, 69, 93 and 144 hrs post injection. […]

[1] = Plasma stability, human plasma; type: in vitro ADME; settings: 37° C.
Experimental: Samples were then centrifuged and the supernatant analyzed on the analytical HPLC column (HPLC method). […] Monitoring was at 750 nm and the area of any observed peak was assessed in each HPLC chromatogram.

E. coli = test: Bacteria competition assay with 3H-maltose; type: cell-based; settings: test compound 1 mM, 1 hr at 37° C., then 3H-maltose 30 min
Experimental: A competition binding assay between the synthesized derivatives and ^3H-maltose that is taken up in bacteria by the ABC transporter, was conducted.
Aliquots of 10^8 colony forming units (CFU) of E. coli were first incubated with test compounds (1 mM) for 1 hr at 37° C. After the first incubation, the bacteria culture was centrifuged at 10,000 rpm for 5 min and pellet washed with 1×HBSS three times. Pellets were suspended in a solution of ^3H-maltose (1 μCi in 200 μL HBSS (1×); American Radiolabeled Chemicals, Inc., USA) and incubated for 30 min at 37° C. Aliquots were centrifuged and washed with 1×HBSS three times before lysing in a bacterial lysis buffer (BugBuster, EMD, Billerica Mass. USA). Activity in bacteria lysates was then counted in a […] and protein concentration determined using a bicinchoninic acid (BCA) assay (Pierce, Thermo Fisher Scientific). Test compounds included maltose as a positive control, azide-1-maltotriose/maltohexose and Cy7-1-maltotriose/maltohexose. In addition, aliquots incubated with only ^3H-maltose were also included to assess normal uptake. Results are shown as counts per minute (cpm) normalized to protein content (μg of protein) per sample (n=3 per study).

Stability in PBS = type: physicochemical; settings: 37° C., up to 24 hr
Experimental: Compound 3a or 3b (100 μM) was incubated in either PBS (1×), murine, human, or rat plasma at 37° C. for up to 24 h. At each time point (0, 2, 4, 10 and 24 h), a 100 μL aliquot of the mixture was taken and added to an ice-cold acetonitrile solution (200 μL) and vortexed for 10 seconds. Samples were then centrifuged and the supernatant analyzed on the analytical HPLC column (HPLC method). […] Monitoring was at 750 nm and the area of any observed peak was assessed in each HPLC chromatogram. Bar plot representation of the compound stability is shown as % intact where

| Compound | S. aureus infection in wound after treatment (FLI image, confirmed by BLI) (S. aureus-infected wound) | degradation in human plasma [1] | 3H-maltose uptake in E. coli when pre-incubated with test compound (E. coli) | stability in PBS (Stability in PBS) |
| --- | --- | --- | --- | --- |
| CN[C@H](CC(C)C)C(=O)N[C@H]1C(=O)N[C@@H](CC(N)=O)C(=O)N[C@H]2C(=O)N[C@H]3C(=O)N[C@H](C(=O)N[C@H](C(=O)O)c4cc(O)cc(O)c4-c4cc3ccc4O)[C@H](O)c3ccc(c(Cl)c3)Oc3cc2cc(c3O[C@@H]2O[C@H](CO)[C@@H](O)[C@H](O)[C@H]2O[C@H]2C[C@](C)(N)[C@H](O)[C@H](C)O2)Oc2ccc(cc2Cl)[C@H]1O [vancomycin] | complete disappearance of S. aureus infection | – | – | – |
| maltotriose | – | no degradation | significant reduction | stable |
| OC[C@H]1O[C@H](O[C@H]2[C@H](O)[C@@H](O)C(O)O[C@@H]2CO)[C@H](O)[C@@H](O)[C@@H]1O (mixture of isomers) [maltose] | – | – | significant reduction | – |
| OC[C@H]1O[C@H](O[C@H]2[C@H](O)[C@@H](O)[C@@H](O[C@H]3[C@H](O)[C@@H](O)[C@@H](O[C@H]4[C@H](O)[C@@H](O)[C@@H](O[C@H]5[C@H](O)[C@@H](O)[C@@H](O[C@H]6[C@H](O)[C@@H](O)C(O)O[C@@H]6CO)O[C@@H]5CO)O[C@@H]4CO)O[C@@H]3CO)O[C@@H]2CO)[C@H](O)[C@@H](O)[C@@H]1O (stereo partly shown) [maltohexose] | – | – | significant reduction | stable |
